Results on 22 molecules are retold here after patent US10508085B2, “Compounds and methods for IDO and TDO modulation, and indications therefor” (Plexxikon Inc., priority 2016, dated 2019).

Assay [1] deals with T1, Human Indoleamine 2,3-dioxygenase (IDO) (Homo sapiens, UniProt P14902).
T1 construct: His tag (N); made in house; host or cells: E. coli
The assay can be described thus: Human IDO enzymatic assay (kynurenine level). The assay is classed as biochemical. The settings on record: 6 nM IDO, 10 μM L-Trp; geometric mean; read-out: IDO1 GMean: IC50 (μM) (Biochemical Assay). In a few lines: (§1)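 Compound is mixed with His-tagged enzyme from E. coli in pH 6.5 phosphate buffer containing ascorbate, methylene blue and catalase, at room temperature. IDO uses 6 nM enzyme and 10 μM Trp for 20 min. TDO uses 1 nM enzyme and 350 μM Trp for 70 min. TCA stops the reaction, and IC50 is derived from kynurenine levels.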

In assay [2] the target is T2, Human Tryptophan 2,3-dioxygenase (TDO) (Homo sapiens, UniProt P48775).
T2 construct: His tag (N); made in house; host or cells: E. coli
T2 sequence (P48775 whole entry): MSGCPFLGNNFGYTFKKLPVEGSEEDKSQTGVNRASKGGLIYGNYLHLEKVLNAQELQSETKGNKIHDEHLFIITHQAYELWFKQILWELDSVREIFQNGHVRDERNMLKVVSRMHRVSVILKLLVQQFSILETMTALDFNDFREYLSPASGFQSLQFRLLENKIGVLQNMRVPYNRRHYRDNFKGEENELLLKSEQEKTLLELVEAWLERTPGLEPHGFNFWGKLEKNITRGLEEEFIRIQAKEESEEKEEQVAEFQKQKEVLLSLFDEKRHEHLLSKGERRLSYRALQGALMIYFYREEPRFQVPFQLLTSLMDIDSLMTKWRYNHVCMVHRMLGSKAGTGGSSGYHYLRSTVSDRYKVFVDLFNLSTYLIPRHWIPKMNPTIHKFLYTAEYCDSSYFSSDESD
The assay can be described thus: Human TDO enzymatic assay (kynurenine level). The settings on record: 1 nM TDO, 350 μM L-Trp; geometric mean; read-out: TDO GMean: IC50 (μM) (Biochemical Assay). It counts as biochemical. A digest of the protocol: as §1

Assay [3] concerns the target T3, human TDO (TDO-expressing HEK293 cells) (Homo sapiens, UniProt P48775).
T3 construct: expressed in transfected cells
The assay can be described thus: Cell based kynurenine assay, TDO-expressing HEK293 cell clones. Conditions: TDO-expressing HEK293 cells, geometric mean, read-out: HEK293 TDO Kynurenine GMean IC50 (μM) (Cellular Assay). A digest of the protocol:
(§2)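 Cellular IDO1 and TDO activity is followed as kynurenine released by stably transfected HEK293 clones over 24 h with test compound. Controls are DMSO-treated cells and media alone.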

The target of assay [4] is T4, human IDO (IDO1-expressing HEK293 cells) (Homo sapiens, UniProt P14902).
T4 construct: expressed in transfected cells
T4 sequence (P14902 whole entry): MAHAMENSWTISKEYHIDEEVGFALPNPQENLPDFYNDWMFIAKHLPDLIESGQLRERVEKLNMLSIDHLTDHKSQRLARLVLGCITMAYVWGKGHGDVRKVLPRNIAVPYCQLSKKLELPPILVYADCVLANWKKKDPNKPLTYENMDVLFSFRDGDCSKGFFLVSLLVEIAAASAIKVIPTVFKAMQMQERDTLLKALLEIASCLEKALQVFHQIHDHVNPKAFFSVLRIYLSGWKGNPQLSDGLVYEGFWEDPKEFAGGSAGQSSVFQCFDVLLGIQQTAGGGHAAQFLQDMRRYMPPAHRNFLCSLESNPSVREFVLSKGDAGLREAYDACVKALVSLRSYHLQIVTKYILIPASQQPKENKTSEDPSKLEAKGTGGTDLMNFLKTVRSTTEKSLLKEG
The assay can be described thus: Cell based kynurenine assay, IDO1-expressing HEK293 cell clones. Conditions: IDO1-expressing HEK293 cells, geometric mean, read-out: HEK293 IDO1 Kynurenine GMean IC50 (μM) (Cellular Assay). A digest of the protocol:
as §2

Each structure is given as a SMILES string. Where two headings read alike, the source gives them in different places. Some results are limits rather than exact numbers.

T3 sequence (P48775 whole entry): as the sequence (P48775 whole entry) above
T1 sequence (P14902 whole entry): as the sequence (P14902 whole entry) above

`CC(C)(C1CCN(C(=O)NC2CC2)CC1)C(O)c1cc(Cl)cc2cn[nH]c12` (stereo not shown) [Compound P-0176, 4-(1-(5-chloro-1H-indazol-7-yl)-1-hydroxy-2-methylpropan-2-yl)-N-cyclopropylpiperidine-1-carboxamide]: the concentration for half-maximal inhibition (IC50) in assay [1], in assay [2], in assay [3] (24 hours incubation) and in assay [4] (24 hours incubation) was 0.0001 to 10 µM each time.

Take `OC(c1cc(Cl)c(F)c2cn[nH]c12)C12CCC(CC1)CC2` (stereo not shown) [Compound P-0135, bicyclo[2.2.2]octan-1-yl(5-chloro-4-fluoro-1H-indazol-7-yl)methanol]: the IC50 in assay [1], in assay [2], in assay [3] (24 hours incubation) and in assay [4] (24 hours incubation) was 0.0001 to 10 µM in each case.

For `CC(C)(C1CCN(C(=O)NCC(F)(F)F)CC1)[C@H](O)c1cc(Cl)cc2cn[nH]c12` [Compound P-0562, (S)-4-(1-(5-chloro-1H-indazol-7-yl)-1-hydroxy-2-methylpropan-2-yl)-N-(2,2,2-trifluoroethyl) piperidine-1-carboxamide], the IC50 in assay [1], in assay [2], in assay [3] (24 hours) and in assay [4] (24 hours) was 0.0001 to 10 µM each time.

With `O[C@H](c1cc(Cl)cc2cn[nH]c12)C12CCC(CC1)CC2` [Compound P-0381, (S)-bicyclo[2.2.2] octan-1-yl(5-chloro-1H-indazol-7-yl)methanol], the IC50 in assay [1], in assay [2], in assay [3] (24 hours incubation) and in assay [4] (24 hours incubation) was 0.0001 to 10 µM each time.

Regarding `CC(C)(C1CCS(=O)(=O)CC1)C(O)c1c(F)c(Cl)cc2cn[nH]c12` (stereo not shown) [Compound P-0298, 4-(1-(5-chloro-6-fluoro-1H-indazol-7-yl)-1-hydroxy-2-methylpropan-2-yl)tetrahydro-2H-thiopyran 1,1-dioxide], the IC50 in assay [1], in assay [2], in assay [3] (24 hours incubation) and in assay [4] (24 hours incubation) was 0.0001 to 10 µM in each case.

For the molecule `CS(=O)(=O)N1CCC(C(F)(F)C(O)c2c3c(cc4cn[nH]c24)CC3)CC1` (stereo not shown) [Compound P-0296, 1-(5,6-dihydro-1H-cyclobuta[f]indazol-7-yl)-2,2-difluoro-2-(1-(methylsulfonyl)piperidin-4-yl)ethan-1-ol], the IC50 in assay [1] was 0.0001 to 10 µM; in assay [2], 0.0001 to 10 µM; in assay [3] (24 hours incubation) it was > 10 µM; in assay [4] (24 hours incubation) it was 0.0001 to 10 µM.

As to `O=C(CC1CC1)N1CCC(C(F)(F)C(O)c2c(F)c(Cl)cc3cn[nH]c23)CC1` (stereo not shown) [Compound P-0408, 1-(4-(2-(5-chloro-6-fluoro-1H-indazol-7-yl)-1,1-difluoro-2-hydroxyethyl)piperidin-1-yl)-2-cyclopropylethan-1-one], the IC50 in assay [1], in assay [2], in assay [3] (24 hours) and in assay [4] (24 hours) was 0.0001 to 10 µM in each case.

On to `CC(C)(C1CCN(C(N)=O)CC1)[C@@H](O)c1cc(Cl)cc2cn[nH]c12` [Compound P-0426, (R)-4-(1-(5-chloro-1H-indazol-7-yl)-1-hydroxy-2-methylpropan-2-yl)piperidine-1-carboxamide], for which the IC50 in assay [1] is 0.0001 to 10 µM; in assay [2] it was 0.0001 to 10 µM; in assay [3] (24 hours), 0.0001 to 10 µM; in assay [4] (24 hours), > 10 µM.

With `CC(C)(C1CCN(S(C)(=O)=O)CC1)C(O)c1cc(Cl)cc2cn[nH]c12` (stereo not shown) [Compound P-0198, 1-(5-chloro-1H-indazol-7-yl)-2-methyl-2-(1-(methylsulfonyl)piperidin-4-yl)propan-1-ol], the IC50 in assay [1], in assay [2], in assay [3] (24 hours incubation) and in assay [4] (24 hours incubation) was 0.0001 to 10 µM in each case.

For `CC(=O)N1CCC(C(F)(F)C(O)c2c(F)c(Cl)cc3cn[nH]c23)CC1` (stereo not drawn) [Compound P-0128, 1-(4-(2-(5-chloro-6-fluoro-1H-indazol-7-yl)-1,1-difluoro-2-hydroxyethyl)piperidin-1-yl)ethan-l-one], the half-maximal inhibitory concentration (IC50) in assay [1], in assay [2], in assay [3] (24 hours incubation) and in assay [4] (24 hours incubation) was 0.0001 to 10 µM throughout.

`CNC(=O)N1CCC(C(F)(F)C(O)c2cc(Cl)cc3cn[nH]c23)CC1` (stereo not shown) [Compound P-0142, 4-(2-(5-chloro-1H-indazol-7-yl)-1,1-difluoro-hydroxyethyl)-N-methylpiperidine-1-carboxamide]: the IC50 in assay [1], in assay [2], in assay [3] (24 hours incubation) and in assay [4] (24 hours incubation) was 0.0001 to 10 µM each time.

Turning to `COC(=O)N1CCC(C(F)(F)C(O)c2cc(Cl)cc3cn[nH]c23)CC1` (stereo not shown) [Compound P-0141, methyl 4-(2-(5-chloro-1H-indazol-7-yl)-1,1-difluoro-2-hydroxyethyl)piperidine-1-carboxylate], the IC50 in assay [1], in assay [2], in assay [3] (24 hours incubation) and in assay [4] (24 hours incubation) was 0.0001 to 10 µM each time.

Turning to `OC1(c2cc(Cl)cc3cn[nH]c23)CC2(C1)C1CC3CC(C1)CC2C3` (stereo not shown) [Compound P-0113, (1r,3r,5r,7r)-3′-(5-chloro-1H-indazol-7-yl)spiro[adamantane-2,1′-cyclobutan]-3′-ol], the half-maximal inhibitory concentration (IC50) in assay [1], in assay [2], in assay [3] (24 hours incubation) and in assay [4] (24 hours incubation) was 0.0001 to 10 µM in each case.

Take `CC(C)(C1CCN(C2CC2)CC1)C(O)c1cc(Cl)cc2cn[nH]c12` (stereo not shown) [Compound P-0319, 1-(5-chloro-1H-indazol-7-yl)-2-(1-cyclopropylpiperidin-4-yl)-2-methylpropan-1-ol]: the IC50 in assay [1], in assay [2], in assay [3] (24 hours incubation) and in assay [4] (24 hours incubation) was 0.0001 to 10 µM throughout.

Regarding `O=C1NCCC12CCN(c1cc(Cl)cc3cn[nH]c13)CC2` [Compound P-0111, 8-(5-chloro-1H-indazol-7-yl)-2,8-diazaspiro[4.5]decan-l-one], the IC50 in assay [1], in assay [2], in assay [3] (24 hours incubation) and in assay [4] (24 hours incubation) was 0.0001 to 10 µM throughout.

With `CC1(C)OC(C)(C)C12CC(O)(c1cc(Cl)cc3cn[nH]c13)C2` [Compound P-0243, 6-(5-chloro-1H-indazol-7-yl)-1,1,3,3-tetramethyl-2-oxaspiro[3.3]heptan-6-ol], the half-maximal inhibitory concentration (IC50) in assay [1], in assay [2], in assay [3] (24 hours incubation) and in assay [4] (24 hours incubation) was 0.0001 to 10 µM throughout.

Regarding `CC(C)(C(O)c1cc(Cl)cc2cn[nH]c12)[C@H]1C[C@H]2CC[C@@H](C1)N2C(N)=O` (stereo partly shown) [Compound P-0340], the IC50 in assay [1], in assay [2], in assay [3] (24 hours incubation) and in assay [4] (24 hours incubation) was 0.0001 to 10 µM each time.

For the molecule `OC1(c2cc(Cl)cc3cn[nH]c23)C2CC3CC(C2)CC1C3` [Compound P-0380, (1R,2R,5S)-2-(5-chloro-1H-indazol-7-yl)adamantan-2-ol], the half-inhibitory concentration (IC50) was 0.0001 to 10 µM in assay [1], 0.0001 to 10 µM in assay [2], 0.0001 to 10 µM in assay [3] (24 hours incubation) and > 10 µM in assay [4] (24 hours incubation).

With `O=C(CN1CCS(=O)(=O)CC1)N1CCC(C(F)(F)C(O)c2cc(Cl)cc3cn[nH]c23)CC1` (stereo not shown) [Compound P-0485, 1-(4-(2-(5-chloro-1H-indazol-7-yl)-1,1-difluoro-2-hydroxyethyl)piperidin-1-yl)-2-(1,1-dioxidothiomorpholino) ethan-1-one], the IC50 in assay [1] was 0.0001 to 10 µM; in assay [2], 0.0001 to 10 µM; in assay [3] (24 hours), > 10 µM; in assay [4] (24 hours), 0.0001 to 10 µM.

`CS(=O)(=O)N1C[C@H]2CC[C@@H](C1)[C@@H]2C(F)(F)C(O)c1cc(Cl)cc2cn[nH]c12` (stereo partly drawn) [Compound P-0132, 1-(5-chloro-1H-indazol-7-yl)-2,2-difluoro-2-((1R,5S,8r)-3-(methylsulfonyl)-3-azabicyclo[3.2.l]octan-8-yl)ethan-l-ol]: the IC50 in assay [1], in assay [2], in assay [3] (24 hours incubation) and in assay [4] (24 hours incubation) was 0.0001 to 10 µM throughout.

`Cc1cc(N2CC3CCC(C2)N3S(C)(=O)=O)c2[nH]ncc2c1` [Compound P-0094, 5-methyl-7-(8-(methylsulfonyl)-3,8-diazabicyclo[3.2.1]octan-3-yl)-1H-indazole]: the 50% inhibitory concentration (IC50) was 0.0001 to 10 µM in assay [1], 0.0001 to 10 µM in assay [2], 0.0001 to 10 µM in assay [3] (24 hours incubation) and > 10 µM in assay [4] (24 hours incubation).

Turning to `CC(C)(C1CCN(C(=O)C2CCOCC2)CC1)[C@H](O)c1cc(Cl)cc2cn[nH]c12` [Compound P-0546, (S)-(4-(1-(5-chloro-1H-indazol-7-yl)-1-hydroxy-2-methylpropan-2-yl)piperidin-1-yl)(tetrahydro-2H-pyran-4-yl)methanone], the IC50 in assay [1], in assay [2], in assay [3] (24 hours) and in assay [4] (24 hours) was 0.0001 to 10 µM throughout.
